By inhibition is commonly meant the relative decrease from the control value, in per cent.

The text below walks through data of US8143226B2, “Tyrosine kinase receptor antagonists and methods of treatment for breast cancer” (The Regents of the University of California, priority 2005, dated 2012).

Format in all cases: cell-based
One assay concerns the target IGF-1R (Homo sapiens, UniProt P08069). Nature of the assay: IGF-1R phosphorylation ELISA in MCF-7/HER2-18 cells. Details: endogenous in cells; host or cells: MCF-7/HER2-18. Conditions: 3 nM IGF-I 10 min. (In an ELISA, binding on a coated surface is turned into a signal by an enzyme label.)
A further assay relates to MCF-7/HER2-18 cells. Put plainly: Tamoxifen and/or NDGA growth inhibition of MCF-7/HER2-18 cells (CyQuant). Conditions: Homo sapiens, 144 h; MCF-7/HER2-18 cells, tamoxifen 100 nM, 6 days. As to the method: (§1) Cells were estrogen-starved for three days in DMEM containing 10% charcoal-[…]-stripped FCS (CDSS) prior to their plating in 96 well plates. Cells were plated in 100 μl of the same media, allowed to adhere overnight, and then were switched to DMEM+10% CDSS supplemented with 100 pM estrogen. […] The media and inhibitors were refreshed on day 3, the cultures were harvested on day 6, and a CyQuant assay was performed as described above.

A further assay concerns MCF-7/neo cells. Nature of the assay: Tamoxifen and/or NDGA growth inhibition of MCF-7/neo cells (CyQuant). Conditions: Homo sapiens, MCF7, 144 h; MCF-7/neo cells, tamoxifen 100 nM, 6 days. Here is the method:
as §1

SMILES strings stand for the structures. Bounds are passed on as bounds.

IGF-1R, sequence (P08069 31-1367): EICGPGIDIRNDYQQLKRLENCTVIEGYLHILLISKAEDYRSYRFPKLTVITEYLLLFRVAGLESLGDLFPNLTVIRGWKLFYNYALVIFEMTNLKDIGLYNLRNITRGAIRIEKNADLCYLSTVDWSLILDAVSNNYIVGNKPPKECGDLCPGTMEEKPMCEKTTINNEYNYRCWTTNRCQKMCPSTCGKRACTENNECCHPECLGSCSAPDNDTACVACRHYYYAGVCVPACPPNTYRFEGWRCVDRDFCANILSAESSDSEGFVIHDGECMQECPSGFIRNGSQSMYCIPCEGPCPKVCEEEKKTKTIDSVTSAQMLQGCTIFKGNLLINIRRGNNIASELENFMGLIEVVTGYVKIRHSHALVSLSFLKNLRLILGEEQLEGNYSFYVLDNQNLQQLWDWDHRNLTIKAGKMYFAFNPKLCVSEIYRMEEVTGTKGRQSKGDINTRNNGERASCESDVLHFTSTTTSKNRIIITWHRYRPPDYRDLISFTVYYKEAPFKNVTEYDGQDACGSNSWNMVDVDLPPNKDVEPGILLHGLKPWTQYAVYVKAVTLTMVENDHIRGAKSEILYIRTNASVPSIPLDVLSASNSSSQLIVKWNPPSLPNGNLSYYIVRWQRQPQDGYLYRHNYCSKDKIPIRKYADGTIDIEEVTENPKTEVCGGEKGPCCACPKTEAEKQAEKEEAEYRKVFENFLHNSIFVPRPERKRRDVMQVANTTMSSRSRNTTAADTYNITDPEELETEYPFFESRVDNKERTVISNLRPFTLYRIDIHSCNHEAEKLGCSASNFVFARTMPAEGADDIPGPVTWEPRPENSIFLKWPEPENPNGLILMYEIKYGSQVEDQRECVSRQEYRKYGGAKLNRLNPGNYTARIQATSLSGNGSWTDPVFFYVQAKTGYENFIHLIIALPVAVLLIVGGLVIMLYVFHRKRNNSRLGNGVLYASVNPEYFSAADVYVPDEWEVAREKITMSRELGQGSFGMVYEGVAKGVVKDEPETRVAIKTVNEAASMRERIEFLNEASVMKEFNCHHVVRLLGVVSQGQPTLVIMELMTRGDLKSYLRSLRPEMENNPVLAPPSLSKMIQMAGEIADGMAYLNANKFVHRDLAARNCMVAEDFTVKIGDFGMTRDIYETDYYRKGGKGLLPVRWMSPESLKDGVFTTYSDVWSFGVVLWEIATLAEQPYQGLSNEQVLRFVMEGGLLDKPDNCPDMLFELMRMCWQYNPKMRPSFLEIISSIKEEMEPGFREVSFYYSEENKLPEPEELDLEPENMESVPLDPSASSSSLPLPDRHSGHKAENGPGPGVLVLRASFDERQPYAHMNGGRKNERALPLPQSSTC
Method for IGF-1R: RTK inhibitors were dissolved in DMSO and diluted with culture medium before being added to cells for 1.5 hour at 37° C. The final concentration of DMSO during the incubation was 0.3% . For some studies, cells were also stimulated with 3 nM IGF-I for 10 minutes at 37° C. Reactions were terminated by rapidly aspirating medium and washing cells three times with ice cold PBS. Cells were harvested and solubilized in 50 mM HEPES, 150 mM NaCl, 1% Triton X-100, 1 mM PMSF, and 2 mM vanadate for 1 hour at 4° C. Protein concentrations were determined by BCA assay (Pierce, Rockford, Ill.). […] Briefly, 10 μg lysate protein were added to triplicate wells in a 96-well plate coated with monoclonal antibody to the IGF-IR (IR3; 2 μg/ml), and incubated for 18 hours at 4° C. Plates were washed five times and then HRP-conjugated anti-phosphotyrosine antibody (0.3 μg/ml), diluted in Solution B (50 mM HEPES, pH 7.6, 150 mM NaCl, 0.05% Tween-20, 1 mM PMSF, 2 mM vanadate and 1 mg/ml bacitracin), was added for two hours at 22° C. Plates were washed five times prior to color development with TMB substrate, which was terminated with 1.0 M H3PO4. Values for receptor phosphorylation were determined by measuring absorbance at 450 nm.

Turning to `COc1cc2ncnc(Nc3ccc(F)c(Cl)c3)c2cc1OCCCN1CCOCC1` [gefitinib, Gefitinib, reference compound], at IGF-1R, the “IGF-1 stimulated phosphorylation of the IGF-1R” value is on record as “only a weak inhibitory effect”.
`CC/C(=C(\c1ccccc1)c1ccc(OCCN(C)C)cc1)c1ccccc1` [tamoxifen, reference compound]: the inhibition at 0.1 µM in the assay on MCF-7/HER2-18 cells was 24%; in the assay with MCF-7/neo cells, over 50%.
